In patent US11186533B2, “Chalcone compound and preparation method thereof” (SOUTH CHINA BOTANICAL GARDEN, CHINESE ACADEMY OF SCIENCES, priority 2018, dated 2021):

Assays:
[1] = DPPH radical scavenging assay; settings: 0.2 mM DPPH in absolute ethanol, dark, room temperature, 30 minutes, absorbance at 517 nm; read-out: IC50 value against DPPH radicals
Protocol: DPPH is a stable free radical. When a free radical scavenger is present, light absorption of DPPH will be reduced when the single electron is scavenged, which allows to evaluate free radical scavenging ability of the substance and accordingly determine antioxidant ability thereof. The DPPH radical scavenging ability of the compound 2,2′,4,4′-tetrahydroxy-3-(2″-hydroxy-3″-methylbutyl-3″-alkenyl)chalcone was measured through the DPPH radical scavenging assay, so as to evaluate the antioxidant ability of the compound. The assay comprised the following steps:
1,1-Diphenyl-2-picrylhydrazyl (DPPH) was dissolved in absolute ethanol to obtain a solution with a concentration of 0.2 mM. The compound 2,2′,4,4′-tetrahydroxy-3-(2″-hydroxy-3″-methylbutyl-3″-alkenyl)chalcone was dissolved in absolute ethanol. 80 μL of the ethanol solution of 2,2′,4,4′-tetrahydroxy-3-(2″-hydroxy-3″-methylbutyl-3″-alkenyl)chalcone and 160 μL of the 0.2 mM DPPH ethanol solution were mixed and the mixture was placed in dark at room temperature for 30 minutes. Then, light absorbance at 517 nm was measured using a microplate reader (SpectraMax 190, Molecular Devices, USA).

[2] = Solubility in methanol; assay type: physicochemical

Question: For `C=C(C)C(O)Cc1c(O)ccc(C(=O)/C=C/c2ccc(O)cc2O)c1O` (centres unmarked) [compound 1, 2,2′,4,4′-tetrahydroxy-3-(2″-hydroxy-3″-methylbutyl-3″-alkenyl)chalcone], which IC50 [1] is on record?
Answer: 21.6 µM

Question: And the solubility in methanol [2]?
Answer: easily soluble in methanol
